Data set [1] relates to liver PDH activity. In words: Ex vivo PDH activation assay, liver. In kind it is in vivo, Sprague-Dawley rats. The note with it: non-fasting SD rats, vehicle 13 ± 3, mean ± S.D. (n = 3). How it is done:
(§1) The action of test compound on tissue PDH activity was evaluated. NADH production was detected via p-iodonitrotetrazolium violet (INT)-coupled system to measure PDH activity.
(§2) Normal male Sprague-Dawley rats were randomly allocated to the vehicle group and the test compound groups. The vehicle (0.5% aqueous methylcellulose solution, 5 mL/kg) or the test compound was orally administered to the rats. At 5 or 20 hr after administration, the rats were anesthetized with an intraperitoneal injection of sodium pentobarbital (60 mg/kg), and liver slices and epididymal adipose tissues were collected.
To the liver slices were rapidly added 9 volumes of ice-cold homogenization buffer (0.25 mol/L sucrose, 5 mmol/L tris(hydroxymethyl)aminomethane hydrochloride (pH 7.5), 2 mmol/L EDTA), and the mixtures were homogenized using a Polytron homogenizer. The homogenates were centrifuged at 600×g, 4° C. for 10 min to obtain the supernatant. The supernatants (1 mL) were centrifuged at 16,000×g, 4° C. for 10 min to collect the precipitates. The precipitates were washed by resuspension in the homogenization buffer (1 mL) and centrifuged in the same manner. The precipitates were frozen with liquid nitrogen and stored at −80° C. as the liver mitochondrial fraction.
(§3) The mitochondrial fractions were thawed and suspended with the sample buffer (0.25 mol/L sucrose, 20 mmol/L tris(hydroxymethyl)aminomethane hydrochloride (pH 7.5), 50 mmol/L potassium chloride, and 1 mL/L 4-(1,1,3,3-tetramethylbutyl)phenyl-polyethylene glycol (Triton X-100)). Active PDH activity (PDHa activity) and total PDH activity (PDHt activity) were measured to evaluate the PDH activity. For the measurement of the PDHt activity, equal amounts of the mitochondrial suspension and the activation buffer (0.25 mol/L sucrose, 20 mmol/L tris(hydroxymethyl)aminomethane hydrochloride (pH 7.5), 50 mmol/L potassium chloride, 1 mL/L Triton X-100, 4 mmol/L calcium chloride, 40 mmol/L magnesium chloride, 10 mmol/L sodium dichloroacetate) were mixed, and the mixtures were incubated at 37° C. for 10 min. Forty microliters of the mitochondrial suspensions diluted with a sample buffer were added to a 96-well microplate for activity measurement and blank measurement. Then 180 μL of the reaction mixture (0.056 mmol/L potassium phosphate buffer (pH 7.5), 5.6 mmol/L DL-carnitine, 2.8 mmol/L NAD, 0.22 mmol/L thiamin pyrophosphate, 0.11 mmol/L Coenzyme A, 1.1 mL/L Triton X-100, 1.1 mmol/L magnesium chloride, 1.1 g/L bovine serum albumin, 0.67 mmol/L INT, 7.2 μmol/L phenazine methosulfate, 28 mmol/L sodium oxamate) was added to each well, and then 20 μL of 50 mmol/L sodium pyruvate for activity measurement or water for blank measurement were added. The mixtures were incubated at room temperature under shading. The absorbances at 500-750 nm, which were attributable to reduction of INT, the final electron acceptor, were measured using a microplate reader over time and the changes in the absorbance were calculated. The PDH activity was calculated by subtraction of the change in absorbance of the blank well from that of the activity measurement well. The percentage of the PDHa activity to the PDHt activity was calculated and taken as an index of the PDH activation.

Data set [2] has as its system adipose tissue PDH activity. The experiment in a line: Ex vivo PDH activation assay, adipose tissue. The following applies: non-fasting SD rats, vehicle 31 ± 10, mean ± S.D. (n = 3). In kind it is in vivo, Sprague-Dawley rats. How it is done: as §1, §2
To the adipose tissues were rapidly added 3 volumes of an ice-cold homogenization buffer, and the mixtures were homogenized using a Polytron homogenizer. The homogenates were centrifuged at 600×g, 4° C. for 10 min to obtain the supernatant. The supernatants were centrifuged at 16,000×g, 4° C. for 10 min to collect the precipitates. The precipitates were washed by resuspension in the homogenization buffer (1 mL) and centrifuged in the same manner. The precipitates were frozen with liquid nitrogen and stored at −80° C. as the adipose tissue mitochondrial fraction.
as §3

Data set [3] addresses hERG current in hERG-transfected HEK293 cells (Homo sapiens (Human), UniProt Q12809). The experiment in a line: hERG whole cell patch clamp test. In kind it is cell-based. How it is done: Using human ether-a-go-go related gene (hERG)-transfected HEK293 cells (Cytomyx Limited), an influence on hERG current was examined according to the whole cell patch clamp technique. The hERG-transfected HEK293 cells were passaged using a CO2 incubator (BNA-111, TABAI ESPEC CORP.) under the set conditions of 37° C., 5% CO2, saturated humidity. Culture containers used were Collagen Type I Coated 75 cm^2 flask (4123-010, AGC TECHNO GLASS CO., Ltd.) and Collagen Type I Coated 35 mm culture dish (4000-010, AGC TECHNO GLASS CO., Ltd.). The culture medium used was E-MEM (Eagle Minimum Essential Medium (Earle's Salts, Nikken biomedical laboratory) added with 10% FCS (Fetal calf serum, BioWest, L.L.C.) and 1% MEM Non-Essential Amino Acids Solution (NEAA, Invitrogen Corporation). Geneticin for the selection of hERG gene expressing cells was added thereto to a concentration of 400 μg/mL. As the cells for the measurement, 3×10^4 hERG-transfected HEK293 cells were plated on a 35 mm culture dish 4 to 7 days before measurement of the hERG current. The culture dish produced for the measurement contained the above-mentioned culture medium without geneticin (Invitrogen Corporation).
The highest evaluation concentration of each compound was determined from the highest concentration at which precipitation was not found in the standard extracellular fluid (NaCl: 140 mmol/L, KCl: 2.5 mmol/L, MgCl2:2 mmol/L, CaCl2: 2 mmol/L, HEPES: 10 mmol/L, glucose: 10 mmol/L (adjusted to pH 7.4 with Tris-base)). As the application method, each solution to be applied was ejected from a Y-tube having a tip diameter of about 0.25 mm, which was adjacent (about 2 mm) to the cells, and applied to the cells. The ejection rate was about 0.4 mL/min.
The experiment was performed at room temperature under a phase contrast microscope. The 35 mm culture dish plated with the cells was set on a measurement apparatus, and the standard extracellular fluid was continuously applied to the cells from the Y-tube. A glass electrode for the measurement was filled with an intracellular fluid (Potassium Gluconate: 130 mmol/L, KCl: 20 mmol/L, MgCl2: 1 mmol/L, ATP-Mg: 5 mmol/L, EGTA: 3.5 mmol/L, HEPES: 10 mmol/L (adjusted to pH 7.2 with Tris-base)). A conventional whole cell patch clamp method was applied to the cells, and the maintenance electric potential was set to −80 mV. Under a fixed electric potential, the whole cell current was amplified by an amplifier for patch clamp (AXOPATCH-200B, Axon Instruments, Inc.), and the data was loaded into a computer (IMC-P642400, Intermedical Co., Ltd.) using a data acquisition analysis software (pCLAMP 9.2, Axon Instruments, Inc.).
The measurement of the hERG current was performed in the following two steps. In both cases, the hERG current was initiated by giving a command potential (maintenance electric potential −80 mV, prepulse +20 mV, 1.5 sec, test-pulse −50 mV, 1.5 sec).
Step (1): The above-mentioned command potential was given at 0.1 Hz for 2 min.
Step (2): The above-mentioned command potential was subjected to P/3 subtraction of pCLAMP 9.2 to remove leak current. This was repeated three times and an average thereof was taken as hERG current.
Subsequent to step (1), Step (2) was performed (about 3 min), and the maximum tail current obtained by applying a test-pulse to the hERG current obtained by the method of step (2) was taken as hERG current value. Hereafter, the operations of (1) and (2) were alternately repeated until completion of the experiment and the hERG current value was measured.
Stable hERG current value was recorded three times (about 10 min), and the standard extracellular fluid was instantaneously exchanged with each application fluid. The hERG current value was measured three times (about 10 min) in the same manner during perfusion of the application fluid, and the current value obtained by the 3rd measurement was taken as hERG current value after perfusion of the application fluid. […]

The mark [4] stands for this setting: Table 2, 5 hr after oral 3 mg/kg.
[5] abbreviates: Table 2, 20 hr after oral 3 mg/kg.

Chain of hERG current in hERG-transfected HEK293 cells (Q12809 whole entry): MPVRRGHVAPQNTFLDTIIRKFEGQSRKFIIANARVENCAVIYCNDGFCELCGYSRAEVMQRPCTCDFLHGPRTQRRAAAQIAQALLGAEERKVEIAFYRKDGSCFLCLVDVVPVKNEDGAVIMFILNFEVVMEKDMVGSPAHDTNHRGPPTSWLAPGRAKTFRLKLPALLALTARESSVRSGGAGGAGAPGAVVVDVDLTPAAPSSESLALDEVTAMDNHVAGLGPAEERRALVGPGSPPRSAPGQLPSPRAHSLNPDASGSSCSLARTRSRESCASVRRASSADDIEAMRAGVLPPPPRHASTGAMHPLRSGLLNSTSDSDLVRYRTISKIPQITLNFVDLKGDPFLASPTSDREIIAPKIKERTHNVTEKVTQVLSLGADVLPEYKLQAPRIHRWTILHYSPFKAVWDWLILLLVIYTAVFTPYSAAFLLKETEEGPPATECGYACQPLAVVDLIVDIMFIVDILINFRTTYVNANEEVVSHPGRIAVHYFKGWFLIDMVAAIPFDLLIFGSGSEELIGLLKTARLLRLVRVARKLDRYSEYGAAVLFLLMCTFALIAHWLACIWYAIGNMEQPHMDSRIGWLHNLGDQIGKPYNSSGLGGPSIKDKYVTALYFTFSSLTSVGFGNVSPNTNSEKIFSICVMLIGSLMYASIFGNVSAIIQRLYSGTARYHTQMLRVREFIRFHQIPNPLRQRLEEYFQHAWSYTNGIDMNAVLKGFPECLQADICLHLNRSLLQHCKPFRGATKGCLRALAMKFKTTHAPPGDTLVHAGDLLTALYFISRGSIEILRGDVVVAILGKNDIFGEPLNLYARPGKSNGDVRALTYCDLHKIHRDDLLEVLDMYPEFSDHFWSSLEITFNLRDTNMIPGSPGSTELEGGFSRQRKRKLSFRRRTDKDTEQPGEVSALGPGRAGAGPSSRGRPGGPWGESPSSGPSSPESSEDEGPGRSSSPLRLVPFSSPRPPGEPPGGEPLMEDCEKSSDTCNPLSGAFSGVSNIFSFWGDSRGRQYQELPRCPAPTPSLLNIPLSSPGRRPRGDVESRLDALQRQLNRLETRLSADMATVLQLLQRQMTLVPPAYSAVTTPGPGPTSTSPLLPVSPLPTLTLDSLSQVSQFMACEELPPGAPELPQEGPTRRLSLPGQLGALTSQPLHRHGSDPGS

Consider `CC(C)(C(N)=O)n1cc(-c2cc(F)cc3c2-c2ccccc2[C@]3(O)C(F)(F)F)cn1` [Compound (D), 2-{4-[(9R)-2-Fluoro-9-hydroxy-9-(trifluoromethyl)-9H-fluoren-4-yl]-1H-pyrazol-1-yl}-2-methylpropanamide], for which the “PDHa activity (% of PDHt activity)” value is reported as 41 ± 15 % of PDHt activity in data set [1] (setting [4]), 20 ± 1 % of PDHt activity in data set [1] (setting [5]), 43 ± 7 % of PDHt activity in data set [2] (setting [4]) and 24 ± 3 % of PDHt activity in data set [2] (setting [5]). The “hERG current Inhibition rate (%)” value worked out at 9.4% in data set [3] (3 μmol/L) and 67.5% in data set [3] (30 μmol/L).

Regarding `CC(C)(O)COc1cc(-c2cnn(CCO)c2)c2c(c1)[C@@](O)(C(F)(F)F)c1ccccc1-2` [Compound (C), (9R)-4-[1-(2-Hydroxyethyl)-1H-pyrazol-4-yl]-2-(2-hydroxy-2-methylpropoxy)-9-(trifluoromethyl)-9H-fluoren-9-ol], the “PDHa activity (% of PDHt activity)” value is 44 ± 5 % of PDHt activity in data set [1] (setting [4]), 13 ± 3 % of PDHt activity in data set [1] (setting [5]), 53 ± 4 % of PDHt activity in data set [2] (setting [4]) and 28 ± 7 % of PDHt activity in data set [2] (setting [5]). Besides, the “hERG current Inhibition rate (%)” value in data set [3] (3 μmol/L) turned out to be 11.5%; in data set [3] (30 μmol/L) it was 69.0%.

Values taken from US9040717B2, “Pyrazole-amide compounds and pharmaceutical use thereof” (JAPAN TOBACCO INC., priority 2013, dated 2015).
